Like-named read-outs stand apart in the source and are kept apart here.

Data on 5 molecules can be found in US20090005309A1, “SUBSTITUTED PIPERIDINES” (AUSPEX PHARMACEUTICALS, INC., priority 2007, published 2009).

One series addresses CYP2C19 (Homo sapiens, UniProt P33261). Nature of the series: In vitro inhibition of human cytochrome P450 CYP2C19 (fluorometric, 3-cyano-7-ethoxycoumarin substrate). How it is done: (§1) In Vitro Inhibition of Human Cytochrome P450 Enzymes
(§2) Solution A: NADPH-Regenerating System
To a glass tube on ice were added sequentially: Water (8 mL) in NADP+ (20 mg), glucose-6-phosphate (20 mg), magnesium chloride hexahydrate (13.3 mg) and glucose-6-phosphate dehydrogenase (60 units).
Solution A was transferred to a 96-well black plate (80 microliter per well), followed by various concentrations of a solution of paroxetine in 20% acetonitrile-water (20 microliter per well). The reaction was initiated by adding 100 microliter of solution B to each well of the 96-well plate. The plate was incubated for 30 minutes at 37° C. in the dark. The reaction was stopped by adding 75 microliter of stop buffer (4:1 acetonitrile-0.5 M Tris base) to each well, and the end point was measured in a fluorometer plate reader at λex=409 nm and λem=460 nm.

Another series addresses CYP2D6 (Homo sapiens, UniProt P10635). Nature of the series: In vitro inhibition of human cytochrome P450 CYP2D6 (fluorometric, 3-[2-(N,N diethyl-N-methylamino)ethyl]-7-methoxy-4-methylcoumarin substrate). Type of series: in vitro ADME. The settings on record: for IC50: 40 minutes at 37° C.; for times the amount of compound needed to inhibit CYP2D6 than non-isotopically enriched zamifenacin: ratio versus non-isotopically enriched zamifenacin (IC50 0.33 μM). Here is the method: as §1, §2
The plate was incubated for 40 minutes at 37° C. in the dark.

Where [1] appears, read: read-out: IC50 for inhibition of CYP2D6.

Sequence of CYP2C19 (P33261 whole entry): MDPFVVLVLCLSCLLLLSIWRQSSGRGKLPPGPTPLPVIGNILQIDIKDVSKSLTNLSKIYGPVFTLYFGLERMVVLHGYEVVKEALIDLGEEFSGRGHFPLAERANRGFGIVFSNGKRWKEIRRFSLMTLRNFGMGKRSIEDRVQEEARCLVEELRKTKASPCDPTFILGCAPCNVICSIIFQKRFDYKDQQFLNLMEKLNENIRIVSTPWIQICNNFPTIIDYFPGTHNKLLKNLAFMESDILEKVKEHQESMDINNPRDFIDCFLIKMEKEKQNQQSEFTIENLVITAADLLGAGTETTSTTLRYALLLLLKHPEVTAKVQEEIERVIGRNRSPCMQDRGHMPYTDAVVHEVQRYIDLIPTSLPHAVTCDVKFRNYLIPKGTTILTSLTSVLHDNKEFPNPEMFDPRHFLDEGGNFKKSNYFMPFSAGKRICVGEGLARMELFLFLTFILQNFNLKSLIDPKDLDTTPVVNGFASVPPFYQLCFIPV
Sequence of CYP2D6 (P10635 whole entry): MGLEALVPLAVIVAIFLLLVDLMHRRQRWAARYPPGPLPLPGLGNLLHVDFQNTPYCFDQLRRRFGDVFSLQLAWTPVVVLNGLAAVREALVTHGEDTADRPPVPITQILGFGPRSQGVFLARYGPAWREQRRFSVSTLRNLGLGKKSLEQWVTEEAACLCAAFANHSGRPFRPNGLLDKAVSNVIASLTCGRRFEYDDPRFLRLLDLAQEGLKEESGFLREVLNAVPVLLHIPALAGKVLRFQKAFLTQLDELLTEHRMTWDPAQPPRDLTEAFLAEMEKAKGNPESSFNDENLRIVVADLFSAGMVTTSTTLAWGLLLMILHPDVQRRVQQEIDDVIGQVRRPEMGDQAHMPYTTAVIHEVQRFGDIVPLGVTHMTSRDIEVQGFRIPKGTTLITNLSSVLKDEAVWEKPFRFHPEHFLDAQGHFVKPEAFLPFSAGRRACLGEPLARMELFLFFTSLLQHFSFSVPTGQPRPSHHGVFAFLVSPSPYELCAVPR

On CYP2C19, `[2H]C([2H])(c1ccc2c(c1)OCO2)C([2H])([2H])N1CCCC(OC(c2ccccc2)c2ccccc2)C1` (stereo not shown) [Example 2, d4-3-Benzhydryloxy-1-(2-benzo[1,3]dioxol-5-yl-ethyl)-piperidine] displayed an IC50 of 4000 nM.
Regarding `Cc1nc2c([nH]1)c(=O)n(C)c(=O)n2Cc1ccco1` [Furafylline, reference compound], the IC50 at CYP2D6 (positive control, read-out: IC50 for inhibition of CYP2D6 (positive control)) was 14.5 nM.
Turning to `[2H]C1([2H])Oc2ccc(C([2H])([2H])C([2H])([2H])N3CCCC(OC(c4ccccc4)c4ccccc4)C3)cc2O1` (stereo not shown) [Example 4, d6-3-Benzhydryloxy-1-(2-benzo[1,3]dioxol-5-yl-ethyl)-piperidine], the results for the half-inhibitory concentration (IC50) at CYP2D6 (setting [1]) and on CYP2C19 were 420 nM and 5300 nM, respectively. Also, at CYP2D6, the “times the amount of compound needed to inhibit CYP2D6 than non-isotopically enriched zamifenacin” value is recorded as 1.3 times.
The like results for `[2H]C1([2H])Oc2ccc(CCN3CCCC(OC(c4ccccc4)c4ccccc4)C3)cc2O1` (stereo not shown) [Example 3, d2-3-Benzhydryloxy-1-(2-benzo[1,3]dioxol-5-yl-ethyl)-piperidine] were, in that order, 400 nM, 5100 nM and 1.2 times.
Take `c1ccc(C(OC2CCCN(CCc3ccc4c(c3)OCO4)C2)c2ccccc2)cc1` (stereo not shown) [zamifenacin, 3-benzhydryloxy-1-(2-benzo[1,3]dioxol-5-yl-ethyl)-piperidine, reference compound]: the values for the IC50 on CYP2D6 (setting [1]) and on CYP2C19 were 330 nM and 3600 nM, respectively.
